Measurements: patent US11261466B2, “Homologous recombination factors” (Sinai Health System, priority 2015, dated 2022)

Test system: USP11
Experiment: USP11 immunoblotting of irradiated U2OS cells (USP11 stability after DNA damage)
Type: cell-based
Conditions: irradiated (20 Gy), inhibitor at 5 μM, USP11 immunoblot, FIG. 11g
Experimental: FIG. 11. Characterization of USP11 protein stability a, U2OS cells synchronized in G1 or S/G2 were treated with cyclohexamide (CHX) and processed at the indicated time points to monitor USP11 stability. b, Immunoprecipitation (IP) of PALB2 from extracts prepared from 293T cells that were synchronized in G1 or S phase and treated or not with IR (20 Gy). c, U2OS cells were irradiated with a dose of 2 or 20 Gy and processed for USP11 immunoblotting at the indicated times post-IR. Actin was used as a loading control. d, U2OS cells, mock-treated or incubated with the ATM inhibitor KU55933 (ATMi), ATR inhibitor VE-821 (ATRi) or DNA-PKcs inhibitor NU7441 (DNAPKi), were irradiated (20 Gy) and processed for USP11 and actin (loading control) immunoblotting. e, Similar experiment to d except that cells were exposed to ultraviolet (UV) radiation (50 mJ/cm^−2). f, U2OS cells, mock-treated or incubated with the proteasome inhibitor MG132, were irradiated (20 Gy) and processed for USP11 and actin (loading control) immunoblotting. g, U2OS cells, mock-treated or incubated with the Cullin inhibitor MLN4924, were irradiated (20 Gy) and processed for USP11 and actin (loading control) immunoblotting. […]

Q: With `NS(=O)(=O)OC[C@@H]1C[C@@H](n2ccc3c(N[C@H]4CCc5ccccc54)ncnc32)C[C@@H]1O` [MLN4924] as the compound, how does the “DNA damage-induced degradation of USP11” value read?
A: protected USP11 from DNA damage-induced degradation
